Assay results reported in publication PMC6213309, “Antibacterial Activity and Mechanism of Action of Bovine Lactoferricin Derivatives with Symmetrical Amino Acid Sequences” (International Journal of Molecular Sciences, 2018).
Where two headings read alike, the source gives them in different places. Ends that are not written are not given here.

Assays:
[1] = system: all microbial strains in this table; experiment: Geometric mean of MICs and therapeutic index; format: cell-based; conditions: nine strains of Table 2
[2] = system: S. epidermidis ATCC 12228; format: cell-based
Description: (§2) The antimicrobial activity of the peptides were defined as the minimum inhibitory concentrations (MIC) according to the Clinical and Laboratory Standards Institute broth microdilution method as described previously [47]. Briefly, 50 μL two-fold serial dilutions of peptides (with final concentrations ranging from 0 μM to 256 μM) and 50 μL bacterial fluids diluted with MHB were added to 96-well microtiter plates. The plates were then incubated at 37 °C for 18 h.

[3] = system: Salmonella typhimurium C 7731; format: cell-based
Description: as §2

[4] = system: E. coli ATCC25922; conditions: for MIC after Trypsin: peptide treated with 1 mg/mL trypsin
Description: (§1) The antimicrobial activity of the peptides were defined as the minimum inhibitory concentrations (MIC) according to the Clinical and Laboratory Standards Institute broth microdilution method as described previously. Briefly, 50 μL two-fold serial dilutions of peptides (with final concentrations ranging from 0 μM to 256 μM) and 50 μL bacterial fluids diluted with MHB were added to 96-well microtiter plates. The plates were then incubated at 37 °C for 18 h.
We assessed the salt stability, thermal stability, and enzymatic stability of the AMPs. Briefly, E. coli ATCC25922 was selected as the test bacterium. The control group was untreated peptides. Different concentrations of salts (150 mM NaCl, 4.5 mM KCl, 6 μM NH4Cl, 1 mM MgCl2, […], 8 mM […], 2.5 mM CaCl2, and 4 mM FeCl3) were added to the incubation buffer to examine the effect of each salt on the antimicrobial activities of the peptides. AMPs were treated for 1 h at 100 °C to test the thermal stability. AMPs were also treated with trypsin, pepsin, papain, and protease K at a concentration of 1 mg/mL for 1 h at 37 °C to test enzyme stability.

[5] = system: S. aureus ATCC 29213; format: cell-based
[6] = system: E. coli UB 1005; format: cell-based
Description: as §2

[7] = system: E. coli ATCC 25922; format: cell-based
Description: as §2

[8] = system: Salmonella enterica subsp. CMCC 50071; conditions: MHB, 37 °C, 18 h, peptides 0-256 μM, triplicate samples
Description: as §1

[9] = system: E. coli ATCC25922; experiment: Flow cytometry, PI staining of membrane damage; format: cell-based; conditions: 30 min, 37 °C
Description: Flow cytometry can quantify the amount of cells with membrane damage as reported previously. Briefly, E. coli ATCC 25922 grown to the logarithmic phase were centrifuged and re-suspended to an OD600 nm of 0.2 in PBS (pH 7.4). The suspensions were mixed with each peptide at 1/2× MIC or 1× MIC and incubated for 30 min at 37 °C with constant shaking (140 rpm). The cells were then harvested by centrifugation, washed three times with PBS, and incubated with Propidium Iodide (PI) at a final concentration of […] for 30 min at 4 °C. Finally, the unbound dye was removed by washing with an excess amount of PBS. The data were recorded using fluorescence-activated cell sorting (Becton Dickinson, Franklin Lakes NJ, USA).

[10] = system: S. aureus ATCC 25923; format: cell-based
[11] = system: Salmonella pullorum C 7913; format: cell-based; conditions: 18 h
[12] = system: Salmonella typhimurium ATCC 14028; format: cell-based
Description: as §2

[13] = system: human red blood cells (hRBCs); experiment: Hemolytic activity; format: cell-based; conditions: lowest concentration causing 5% hemolysis of hRBCs; 1% hRBCs in PBS pH 7.2, 37 °C, 1 h, absorbance 570 nm
Description: Hemolytic activity against human red blood cells (hRBCs) was determined as described before. Briefly, 1 mL of fresh hRBCs was centrifuged in PBS (pH 7.2). After washing two times, the hRBCs were resuspended with PBS at a concentration of 1%. Next, 50 μL of the hRBCs solution was added to 50 μL PBS containing two-fold serial dilutions of peptides in each well. The plates were then incubated at 37 °C for 1 h and centrifuged at 1000× g for 5 min. The supernatants were removed, and the release of hemoglobin was determined by measuring the absorbance at 570 nm using a microplate reader (Bio-Rad, Hercules CA, USA). Erythrocyte suspensions in PBS and 0.1% Triton X-100 were used as negative and positive controls, respectively. Melittin was the control peptide.

[14] = E. coli ATCC25922, peptide treated with 1 mg/mL pepsin, 1 h, 37 °C
[15] = S. aureus ATCC 29213, MHB, 37 °C, 18 h, peptides 0-256 μM, triplicate samples
[16] = E. coli ATCC25922, untreated peptides

Q: With FWRRWQWRRWF-NH2 [FW-WF] as the substance, how does the “GM (geometric mean of MIC values from all microbial strains)” value [1] read?
A: 78.67 µM

Q: And the MIC ([2]; ATCC 12228, 18 h)?
A: 8 µM

Q: What about the MIC ([3]; murium C 7731, 18 h) of the same substance?
A: 16 µM

Q: And the “MIC after Papain” value ([4]; ATCC25922, 1 h)?
A: 4 µM

Q: And the “MIC after Protease K” value ([4]; ATCC25922, 1 h)?
A: 16 µM

Q: And the “MIC following heating at 100 °C” value ([4]; ATCC25922, 1 h)?
A: 8 µM

Q: What about the “MIC in the presence of Ca2+” value ([4]; ATCC25922, 18 h) of the same substance?
A: 8 µM

Q: And the “MIC in the presence of Fe3+” value ([4]; ATCC25922, 18 h)?
A: 4 µM

Q: What about the “MIC in the presence of K+” value ([4]; ATCC25922, 18 h) of the same substance?
A: 4 µM

Q: What about the “MIC in the presence of Mg2+” value ([4]; ATCC25922, 18 h) of the same substance?
A: 4 µM

Q: And the “MIC in the presence of NH4+” value ([4]; ATCC25922, 18 h)?
A: 2 µM

Q: What about the “MIC in the presence of Na+” value ([4]; ATCC25922, 18 h) of the same substance?
A: 8 µM

Q: What about the “MIC in the presence of Zn2+” value ([4]; ATCC25922, 18 h) of the same substance?
A: 4 µM

Q: What about the “MIC, Control (enzymatic stability)” value ([4]; ATCC25922, 18 h) of the same substance?
A: 4 µM

Q: What about the “MIC, Control (salt stability)” value ([4]; ATCC25922, 18 h) of the same substance?
A: 4 µM

Q: What about the “MIC, Control (thermal stability)” value ([4]; ATCC25922, 18 h) of the same substance?
A: 4 µM

Q: What about the “MIC after Pepsin” value [4, 14] of the same substance?
A: >128 µM

Q: What about the “MIC after Trypsin” value ([4]; E. coli ATCC25922, 1 h, 37 °C) of the same substance?
A: >128 µM

Q: And the MIC [5, 15]?
A: >128 µM

Q: And the MIC ([6]; UB 1005, 18 h)?
A: 16 µM

Q: What about the MIC ([7]; ATCC25922, 18 h) of the same substance?
A: 4 µM

Q: And the MIC [8]?
A: >128 µM

Q: What about the “survival rates of the cells (no PI signal)” value ([9]; 1/2× MIC) of the same substance?
A: 82.5%

Q: What about the “survival rates of the cells (no PI signal)” value ([9]; 1× MIC) of the same substance?
A: 58.7%

Q: What about the MIC ([10]; ATCC 25923, 18 h) of the same substance?
A: 16 µM

Q: What about the MIC [11] of the same substance?
A: 8 µM

Q: What about the MIC ([12]; ATCC 14028, 18 h) of the same substance?
A: 128 µM

Q: For “KCRRWQWRMKK-NH2 [LFcinB18–28, reference compound]”, which MIC ([2]; S. epidermidis ATCC 12228, MHB, 37 °C, 18 h, peptides 0-256 μM, triplicate samples) is on record?
A: >128 µM

Q: And the MIC ([3]; Salmonella typhimurium C 7731, MHB, 37 °C, 18 h, peptides 0-256 μM, triplicate samples)?
A: >128 µM

Q: And the “MIC in the presence of NH4+” value ([4]; E. coli ATCC25922, 6 μM NH4Cl)?
A: 8 µM

Q: What about the “MIC in the presence of Mg2+” value ([4]; E. coli ATCC25922, 1 mM MgCl2) of the same substance?
A: 16 µM

Q: And the “MIC in the presence of Ca2+” value ([4]; E. coli ATCC25922, 2.5 mM CaCl2)?
A: 16 µM

Q: And the “MIC in the presence of Fe3+” value ([4]; E. coli ATCC25922, 4 mM FeCl3)?
A: 4 µM

Q: And the “MIC in the presence of K+” value ([4]; E. coli ATCC25922, 4.5 mM KCl)?
A: 16 µM

Q: And the “MIC in the presence of Zn2+” value ([4]; E. coli ATCC25922, 8 mM ZnCl3)?
A: 8 µM

Q: What about the “MIC in the presence of Na+” value ([4]; E. coli ATCC25922, 150 mM NaCl) of the same substance?
A: 16 µM

Q: And the “MIC following heating at 100 °C” value ([4]; E. coli ATCC25922, peptide treated 1 h at 100 °C)?
A: 16 µM

Q: And the “MIC after Papain” value ([4]; E. coli ATCC25922, peptide treated with 1 mg/mL papain, 1 h, 37 °C)?
A: >128 µM

Q: What about the “MIC after Pepsin” value [4, 14] of the same substance?
A: >128 µM

Q: And the “MIC after Protease K” value ([4]; E. coli ATCC25922, peptide treated with 1 mg/mL protease K, 1 h, 37 °C)?
A: >128 µM

Q: And the “MIC after Trypsin” value ([4]; E. coli ATCC25922, 1 h, 37 °C)?
A: >128 µM

Q: What about the “MIC, Control (enzymatic stability)” value [4, 16] of the same substance?
A: 16 µM

Q: What about the “MIC, Control (thermal stability)” value [4, 16] of the same substance?
A: 16 µM

Q: What about the “MIC, Control (salt stability)” value ([4]; E. coli ATCC25922, untreated peptides, no added salt) of the same substance?
A: 16 µM

Q: And the MIC [5, 15]?
A: >128 µM

Q: What about the MIC ([6]; E. coli UB 1005, MHB, 37 °C, 18 h, peptides 0-256 μM, triplicate samples) of the same substance?
A: 128 µM

Q: And the MIC ([7]; E. coli ATCC 25922, MHB, 37 °C, 18 h, peptides 0-256 μM, triplicate samples)?
A: 16 µM

Q: What about the “MHC (minimum hemolytic concentration)” value [13] of the same substance?
A: >256 µM

Q: What about the MIC [8] of the same substance?
A: >128 µM

Q: And the MIC ([10]; S. aureus ATCC 25923, MHB, 37 °C, 18 h, peptides 0-256 μM, triplicate samples)?
A: 128 µM

Q: What about the MIC ([11]; Salmonella pullorum C 7913, MHB, 37 °C, peptides 0-256 μM, triplicate samples) of the same substance?
A: >128 µM

Q: What about the MIC ([12]; Salmonella typhimurium ATCC 14028, MHB, 37 °C, 18 h, peptides 0-256 μM, triplicate samples) of the same substance?
A: >128 µM

Q: What does the source list for KWRRWQWRRWK-NH2 [KW-WK]?
A: MIC ([2]; ATCC 12228, 18 h): 8 µM; MIC ([3]; murium C 7731, 18 h): 16 µM; MIC after Papain ([4]; ATCC25922, 1 h): 8 µM; MIC after Pepsin ([4]; ATCC25922, 1 h): 16 µM; MIC after Protease K ([4]; ATCC25922, 1 h): 8 µM; MIC following heating at 100 °C ([4]; ATCC25922, 1 h): 4 µM; MIC in the presence of Ca2+ ([4]; ATCC25922, 18 h): 8 µM; MIC in the presence of Fe3+ ([4]; ATCC25922, 18 h): 4 µM; MIC in the presence of K+ ([4]; ATCC25922, 18 h): 4 µM; MIC in the presence of Mg2+ ([4]; ATCC25922, 18 h): 8 µM; MIC in the presence of NH4+ ([4]; ATCC25922, 18 h): 8 µM; MIC in the presence of Na+ ([4]; ATCC25922, 18 h): 8 µM; MIC in the presence of Zn2+ ([4]; ATCC25922, 18 h): 8 µM; MIC, Control (enzymatic stability) ([4]; ATCC25922, 18 h): 4 µM; MIC, Control (salt stability) ([4]; ATCC25922, 18 h): 4 µM; MIC, Control (thermal stability) ([4]; ATCC25922, 18 h): 4 µM; MIC after Trypsin ([4]; E. coli ATCC25922, 1 h, 37 °C): >128 µM; MIC ([5]; ATCC 29213, 18 h): 8 µM; MIC ([6]; UB 1005, 18 h): 8 µM; MIC ([7]; ATCC25922, 18 h): 4 µM; MIC [8]: 128 µM; MIC ([10]; ATCC 25923, 18 h): 32 µM; MIC [11]: 16 µM; MIC ([12]; ATCC 14028, 18 h): 32 µM
